This is an account of results in the NIST ThermoML archive (doi:10.1021/je700316s).

The structures appear in SMILES notation. ± gives the expanded uncertainty stated by the source.

For this series the following is noted: Liquid; for mass density: 298.15 K, 101.33 kPa, Pycnometric method.
The mark [1] stands for this setting: Ebulliometric method (Recirculating still).

As usually defined, the mass density is mass per unit of volume. With `CCCCO` [butan-1-ol], the mass density is listed as 805.8 ± 0.7 kg/m3. The Normal boiling temperature under setting [1] is 117.70 ± 0.2 °C.
In the same order, the values of `CCCO` [propan-1-ol] are 799.6 ± 0.7 kg/m3 and 97.06 ± 0.2 °C.
`CC(C)O` [propan-2-ol]: the mass density came out at 780.8 ± 0.7 kg/m3. Further, the Normal boiling temperature under setting [1] came out at 82.2 ± 0.2 °C.
As for `CCO` [ethanol], the mass density came to 785.2 ± 0.7 kg/m3 and the Normal boiling temperature was found to be 78.29 ± 0.2 °C.
